In brackets after ≈: the same amount, converted by molar mass. Read-outs that look alike come from different tables or passages of the source.
Assays:
[1] = TU solubility in various solubilizers; details: testosterone undecanoate dissolved in the named vehicle
[2] = cited from earlier work
[3] = cited from earlier work; remark: listed apart in the source
[4] = 200 mg oral twice daily, cited from earlier work
plasma lipids = details: interesterified with margarine, mild hypercholesteremia; cited from earlier work
[5] = tested on: absorption of cholesterol; details: 1 g ingested, meal containing 500 mg of cholesterol; cited from earlier work

Compound	TU Solubility (mg/g) at 37 C. [1] [mg/g]	further results
Cc1c(C)c2c(c(C)c1O)CCC(C)(CCCC(C)CCCC(C)CCCC(C)C)O2 (racemic) [dl-alpha-tocopherol]	527	–
CC(C)CCC[C@@H](C)[C@H]1CC[C@H]2[C@@H]3CC=C4C[C@@H](O)CC[C@]4(C)[C@H]3CC[C@]12C [Cholesterol]	–	water solubility [2]: ~0.01 µg/mL (≈ 0.0259 µM)
CCCCCCCC/C=C\CCCCCCCC(=O)OCC [Crodamol EO (ethyl oleate), ethyl oleate]	221	–
CCCCCCCCCCCCCC(=O)OC(C)C [Crodamol IPM (isopropyl myristate), isopropyl myristate]	295	–
CCCCCCCCCCCCCCCC(=O)OC(C)C [Crodamol IPP (isopropyl palmitate), isopropyl palmitate]	215	–
CCCCC/C=C\C/C=C\CCCCCCCC(=O)OCC [Ethyl linoleate]	230	–
CCCCCCCC/C=C\CCCCCCCC(=O)OCC(COC(=O)CCCCCCC/C=C\CCCCCCCC)OC(=O)CCCCCCC/C=C\CCCCCCCC [Glyceryl trioleate (Capmul GTO), Glyceryl trioleate]	154	–
CCCCC/C=C\C/C=C\CCCCCCCC(=O)O [Linoleic acid]	391	–
CC/C=C\C/C=C\C/C=C\CCCCCCCC(=O)O [Linolenic acid]	162	–
CN1CCCC1=O [N-methyl pyrolidone]	>500	–
CCCCCCCC/C=C\CCCCCCCC(=O)O [Oleic acid]	405	–
CCCCCC[C@@H](O)C/C=C\CCCCCCCC(=O)O [Ricinoleic acid]	244	–
CCCCCCCCCCC(=O)O[C@H]1CC[C@H]2[C@@H]3CCC4=CC(=O)CC[C@]4(C)[C@H]3CC[C@]12C [TU, testosterone undecanoate]	–	oral bioavailability ([3]; dosed with normal fat meal (30% calories from fat), solution of TU in oleic acid): about 7%; fraction absorbed via the intestinal lymphatic system ([3]; in vivo): More than 80%
CCOCCOCCO [Transcutol HP, diethylene glycol monoethyl ether]	180	–
C[C@]12CC[C@H]3[C@@H](CCC4=CC(=O)CC[C@@]43C)[C@@H]1CC[C@@H]2O [micronized testosterone, testosterone]	–	time of total serum testosterone within the normal range ([4]; two doses): greater than 12 hours; time at desired level of serum testosterone for each peak [4]: about 4 hours
CC[C@H](CC[C@@H](C)[C@H]1CC[C@H]2[C@@H]3CC[C@H]4C[C@@H](O)CC[C@]4(C)[C@H]3CC[C@]12C)C(C)C [sitostanol]	–	mean 1-year reduction in plasma cholesterol (plasma lipids): 10.2%
C[C@]12CC[C@H]3[C@@H](CCC4=CC(=O)CC[C@@]43C)[C@@H]1CC[C@@H]2O [testosterone]	–	oral bioavailability ([3]; dosed as a suspension in oil): 1%; circulating fraction bound to sex hormone binding globulin and albumin ([3]; in vivo): > 98%; plasma half-life ([3]; in vivo): 10 to 30 min
CC[C@H](CC[C@@H](C)[C@H]1CC[C@H]2[C@@H]3CC=C4C[C@@H](O)CC[C@]4(C)[C@H]3CC[C@]12C)C(C)C [ß-sitosterol]	–	reduction of absorption of cholesterol [5]: 42%
